From PMC12677607, “Identification of a Pair of Linear or Cyclic Naturally Inspired Bifunctional Lipopeptide Antibiotics That Overcome Antimicrobial Resistance” (Advanced Science, 2025)
In brackets after ≈: the same amount, converted by molar mass.

Experiments:
[1] = tested on: Mycobacterium smegmatis mc2155; assay: microbe, parasite or virus in culture; details: Mycolicibacterium smegmatis, MC2155, read-out: MIC Mycobacterium smegmatis mc2155
Enterococcus faecalis 26 = assay: microbe, parasite or virus in culture; format: cell-based; details: Enterococcus faecalis, 26, 16 h, read-out: MIC Enterococcus faecalis 26
Summary of the method: (§1)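 MIC = lowest peptide concentration with no visible growth; LB broth microdilution, n = 2. Inoculum: overnight culture diluted 5000× (S. aureus 10000×). Peptides serially diluted 2-fold, 64–0.125 µg mL^−1 in the broth added to cells.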

[2] = tested on: Staphylococcus aureus ATCC 6538; assay: microbe, parasite or virus in culture; format: cell-based; details: Staphylococcus aureus, ATCC6538, 16 h, read-out: MIC Staphylococcus aureus ATCC 6538
Summary of the method: as §1

Enterococcus faecalis 28 = assay: microbe, parasite or virus in culture; format: cell-based; details: Enterococcus faecalis, 28, 16 h, read-out: MIC Enterococcus faecalis 28
Summary of the method: as §1

[3] = tested on: Streptococcus mutans ATCC 25175; assay: microbe, parasite or virus in culture; format: cell-based; details: Streptococcus mutans, ATCC25175, 16 h, read-out: MIC Streptococcus mutans ATCC 25175
Summary of the method: as §1

[4] = tested on: Enterococcus faecalis ATCC 29212; assay: microbe, parasite or virus in culture; format: cell-based; details: Enterococcus faecalis, ATCC29212, 16 h, read-out: MIC Enterococcus faecalis ATCC 29212
Summary of the method: as §1

[5] = tested on: Staphylococcus aureus Newman; assay: microbe, parasite or virus in culture; format: cell-based; details: Staphylococcus aureus, NEWMAN, 16 h, read-out: MIC Staphylococcus aureus Newman
Summary of the method: as §1

[6] = tested on: Staphylococcus aureus USA300; assay: microbe, parasite or virus in culture; format: cell-based; details: Staphylococcus aureus, USA300, 16 h, read-out: MIC Staphylococcus aureus USA300
Summary of the method: as §1

[7] = tested on: Staphylococcus aureus ATCC 25923; assay: microbe, parasite or virus in culture; format: cell-based; details: Staphylococcus aureus, ATCC25923, 16 h, read-out: MIC Staphylococcus aureus ATCC 25923
Summary of the method: as §1

[8] = tested on: Enterococcus faecium 35682; assay: microbe, parasite or virus in culture; format: cell-based; details: Enterococcus faecium, 35682, 16 h, read-out: MIC Enterococcus faecium 35682
Summary of the method: as §1

[9] = tested on: Streptococcus pyogenes ATCC 19615; assay: microbe, parasite or virus in culture; format: cell-based; details: Streptococcus pyogenes, ATCC19615, 16 h, read-out: MIC Streptococcus pyogenes ATCC 19615
Summary of the method: as §1

fungi = details: Figure S20, known peptide; cited from earlier work

Compound | MIC [1] [µg/mL] | MIC (Enterococcus faecalis 26) [µg/mL] | MIC [2] [µg/mL] | MIC (Enterococcus faecalis 28) [µg/mL] | MIC [3] [µg/mL] | MIC [4] [µg/mL] | MIC [5] [µg/mL] | MIC [6] [µg/mL] | MIC [7] [µg/mL] | MIC [8] [µg/mL] | MIC [9] [µg/mL] | anti-fungal activity (fungi)
CN[C@H](CC(C)C)C(=O)N[C@H]1C(=O)N[C@@H](CC(N)=O)C(=O)N[C@H]2C(=O)N[C@H]3C(=O)N[C@H](C(=O)N[C@H](C(=O)O)c4cc(O)cc(O)c4-c4cc3ccc4O)[C@H](O)c3ccc(c(Cl)c3)Oc3cc2cc(c3O[C@@H]2O[C@H](CO)[C@@H](O)[C@H](O)[C@H]2O[C@H]2C[C@](C)(N)[C@H](O)[C@H](C)O2)Oc2ccc(cc2Cl)[C@H]1O [Vancomycin, reference compound] | > 64 | 1 (≈ 0.69 µM) | 1 (≈ 0.69 µM) | > 64 | 2 (≈ 1.38 µM) | 2 (≈ 1.38 µM) | 0.5 (≈ 0.345 µM) | 1 (≈ 0.69 µM) | 1 (≈ 0.69 µM) | > 64 | 0.5 (≈ 0.345 µM) | 
Keanumycin A |  |  |  |  |  |  |  |  |  |  |  | Pot ent anti-fungal activity
